Data taken from patent US5462935A, “Cephalosporin compounds” (Lucky Limited, priority 1990, dated 1995).
≈ marks a conversion by molar mass, not a printed value.

Key:
[1] = test system: Klebsiella pneumoniae ATCC 10031; test: minimal inhibitory concentration, two-fold agar dilution; type: cell-based; details: ATCC10031, Muller-Hinton agar, 37° C., 20 hours
Protocol: (§1) These NIC values were taken by employing a two-fold dilution method: that is, two-fold serial dilutions of each of the test compounds were made and dispersed in a Muller-Hinton agar medium; 2 μl of the standard test strain which had the 10^7 CFU (Colony Forming Unit) per ml was inoculated on the medium; and these were incubated at 37° C. for 20 hours.

[2] = test system: Bacillus cereus ATCC 11778; test: as above; type: cell-based; details: Bacillus cereus, ATCC11778, 20 h
Protocol: as §1

[3] = test system: Providencia rettgeri ATCC 9250; test: as above; type: cell-based; details: ATCC9250, Muller-Hinton agar, 37° C., 20 hours
Protocol: as §1

[4] = test system: Pseudomonas aerugionsa ATCC 27853; test: as above; type: cell-based; details: ATCC27853, Muller-Hinton agar, 37° C., 20 hours
Protocol: as §1

[5] = test system: Shigella sonnei ATCC 11060; test: as above; type: cell-based; details: ATCC11060, Muller-Hinton agar, 37° C., 20 hours
Protocol: as §1

[6] = test system: Shigella flexneri ATCC 11836; test: as above; type: cell-based; details: ATCC11836, Muller-Hinton agar, 37° C., 20 hours
Protocol: as §1

[7] = test system: Salmonella typhimurium ATCC 14028; test: as above; type: cell-based; details: Salmonella enterica, Muller-Hinton agar, 37° C., 20 hours
Protocol: as §1

[8] = test system: Citrobacter freundii ATCC 8090; test: as above; type: cell-based; details: ATCC8090, Muller-Hinton agar, 37° C., 20 hours
Protocol: as §1

[9] = test system: Staphylococcus aureus ATCC 6638p; test: as above; type: cell-based; details: ATCC6638P, 20 h
Protocol: as §1

[10] = test system: Staphylococcus epidermidis ATCC 10537; test: as above; type: cell-based; details: ATCC10537, Muller-Hinton agar, 37° C., 20 hours
Protocol: as §1

[11] = test system: Acinetobacter calcoaceticus ATCC 15473; test: as above; type: cell-based; details: ATCC15473, Muller-Hinton agar, 37° C., 20 hours
Protocol: as §1

[12] = test system: Serratia marcescens ATCC 27117; test: as above; type: cell-based; details: ATCC27117, Muller-Hinton agar, 37° C., 20 hours
Protocol: as §1

[13] = test system: Streptococcus faecalis ATCC 29212; test: as above; type: cell-based; details: Enterococcus faecalis, ATCC29212, Muller-Hinton agar, 37° C., 20 hours
Protocol: as §1

[14] = test system: Escherichia coli ATCC 10536; test: as above; type: cell-based; details: ATCC10536, Muller-Hinton agar, 37° C., 20 hours
Protocol: as §1

[15] = test system: Pseudomonas aerugionsa ATCC 10145; test: as above; type: cell-based; details: ATCC10145, Muller-Hinton agar, 37° C., 20 hours
Protocol: as §1

[16] = test system: Micrococcus luteus ATCC 9341; test: as above; type: cell-based; details: ATCC9341, Muller-Hinton agar, 37° C., 20 hours
Protocol: as §1

[17] = test system: Pseudomonas aeruginosa ATCC 25619; test: as above; type: cell-based; details: ATCC25619, Muller-Hinton agar, 37° C., 20 hours
Protocol: as §1

[18] = test system: Enterobacter cloacae ATCC 27508; test: as above; type: cell-based; details: ATCC27508, Muller-Hinton agar, 37° C., 20 hours
Protocol: as §1

[19] = test system: Enterobacter aerogenes ATCC 29751; test: as above; type: cell-based; details: Klebsiella aerogenes, ATCC29751, 20 h
Protocol: as §1

[20] = test system: Morganella morganii ATCC 8076h; test: as above; type: cell-based; details: ATCC8076H, 20 h
Protocol: as §1

[21] = test system: Escherichia coli ATCC 25922; test: as above; type: cell-based; details: ATCC25922, Muller-Hinton agar, 37° C., 20 hours
Protocol: as §1

ATCC 12228 = test: as above; type: cell-based; details: Staphylococcus faecalis, ATCC12228, 20 h
Protocol: as §1

[22] = test system: Proteus vulgaris ATCC 6059; test: as above; type: cell-based; details: ATCC6059, Muller-Hinton agar, 37° C., 20 hours
Protocol: as §1

[23] = test system: Proteus mirabilis ATCC 25933; test: as above; type: cell-based; details: ATCC25933, Muller-Hinton agar, 37° C., 20 hours
Protocol: as §1

[24] = acute toxicity test, intravenous; details: mouse, in vivo, ICR mice, observed for 14 days
Description: The results are shown in the last row of Table 2.

[25] = test system: Bacillus megaterium ATCC 9885; test: minimal inhibitory concentration, two-fold agar dilution; type: cell-based; details: Priestia megaterium, ATCC9885, 20 h
Protocol: as §1

SMILES	MIC [1]	MIC [2]	MIC [3]	MIC [4]	MIC [5]	MIC [6]	MIC [7]	MIC [8]	MIC [9]	MIC [10]	MIC [11]	MIC [12]	MIC [13]	MIC [14]	MIC [15]	MIC [16]	MIC [17]	MIC [18]	MIC [19]	MIC [21]	also measured
Cc1c(N)nc(SCC2=C(C(=O)[O-])N3C(=O)C(NC(=O)/C(=N\O[C@H](C)C(=O)O)c4csc(N)n4)[C@H]3SC2)[n+](C)c1N (stereo partly drawn) [I-R-6, 7-[(Z)-2-(2-aminothiazol-4-yl)-2-[(R)-1-carboxyeth-1-oxyimino]acetamido]-3-[(4,6-diamino-1,5-dimethylpyrimidinium-2-yl)thiomethyl]-3-cephem-4-carboxylate]	0.063 µg/mL (≈ 0.101 µM)	128 µg/mL (≈ 205 µM)	≤ 0.008 µg/mL	2 µg/mL (≈ 3.21 µM)	0.063 µg/mL (≈ 0.101 µM)	0.031 µg/mL (≈ 0.0497 µM)	0.13 µg/mL (≈ 0.208 µM)	0.063 µg/mL (≈ 0.101 µM)	4 µg/mL (≈ 6.41 µM)	2 µg/mL (≈ 3.21 µM)	4 µg/mL (≈ 6.41 µM)	0.13 µg/mL (≈ 0.208 µM)	> 128 µg/mL	0.063 µg/mL (≈ 0.101 µM)	2 µg/mL (≈ 3.21 µM)	0.5 µg/mL (≈ 0.802 µM)	2 µg/mL (≈ 3.21 µM)	0.016 µg/mL (≈ 0.0257 µM)	1 µg/mL (≈ 1.6 µM)	0.13 µg/mL (≈ 0.208 µM)	MIC [20]: ≤ 0.008 µg/mL; MIC (ATCC 12228): 2 µg/mL (≈ 3.21 µM); MIC [22]: 0.063 µg/mL (≈ 0.101 µM); MIC [23]: 0.031 µg/mL (≈ 0.0497 µM); LD50 at 336 h [24]: > 3000 mg/kg
C[C@@H](O/N=C(\C(=O)NC1C(=O)N2C(C(=O)[O-])=C(CSc3nc(N)cc(N)[n+]3-c3ccccc3)CSC12)c1csc(N)n1)C(=O)O (stereo partly drawn) [I-R-5, 7-[(Z)-2-(2-aminothiazol-4-yl)-2-[(R)-1-carboxyeth-1-oxyimino]acetamido]-3-[(4,6-diamino-1'-phenylpyrimidinium-2-yl)thiomethyl]-3-cephem-4-carboxylate]	0.063 µg/mL (≈ 0.0938 µM)	64 µg/mL (≈ 95.3 µM)	≤ 0.008 µg/mL	4 µg/mL (≈ 5.95 µM)	0.25 µg/mL (≈ 0.372 µM)	0.063 µg/mL (≈ 0.0938 µM)	0.5 µg/mL (≈ 0.744 µM)	0.13 µg/mL (≈ 0.194 µM)	4 µg/mL (≈ 5.95 µM)	2 µg/mL (≈ 2.98 µM)	16 µg/mL (≈ 23.8 µM)	0.5 µg/mL (≈ 0.744 µM)	> 128 µg/mL	0.13 µg/mL (≈ 0.194 µM)	8 µg/mL (≈ 11.9 µM)	0.25 µg/mL (≈ 0.372 µM)	2 µg/mL (≈ 2.98 µM)	0.031 µg/mL (≈ 0.0461 µM)	1 µg/mL (≈ 1.49 µM)	0.25 µg/mL (≈ 0.372 µM)	MIC [25]: 0.5 µg/mL (≈ 0.744 µM); MIC [20]: ≤ 0.008 µg/mL; MIC (ATCC 12228): 2 µg/mL (≈ 2.98 µM); MIC [22]: 0.063 µg/mL (≈ 0.0938 µM); MIC [23]: 0.063 µg/mL (≈ 0.0938 µM); LD50 at 336 h [24]: > 2000 mg/kg
C[C@H](O/N=C(\C(=O)NC1C(=O)N2C(C(=O)[O-])=C(CSc3nc(N)cc(N)[n+]3C)CS[C@H]12)c1csc(N)n1)C(=O)O (stereo partly drawn) [I-S-2, 7-[(Z)-2-(2-aminothiazol-4-yl)-2-[(S)-1-carboxyeth-1-oxyimino]acetamido]-3-[(4,6-diamino-1-methylpyrimidinium-2-yl)thiomethyl]-3-cephem-4-carboxylate]	0.016 µg/mL (≈ 0.0262 µM)	32 µg/mL (≈ 52.5 µM)	≤ 0.008 µg/mL	0.5 µg/mL (≈ 0.82 µM)	0.031 µg/mL (≈ 0.0508 µM)	≤ 0.008 µg/mL	0.13 µg/mL (≈ 0.213 µM)	0.016 µg/mL (≈ 0.0262 µM)	2 µg/mL (≈ 3.28 µM)	1 µg/mL (≈ 1.64 µM)	2 µg/mL (≈ 3.28 µM)	0.031 µg/mL (≈ 0.0508 µM)	> 128 µg/mL	0.031 µg/mL (≈ 0.0508 µM)	1 µg/mL (≈ 1.64 µM)	0.13 µg/mL (≈ 0.213 µM)	1 µg/mL (≈ 1.64 µM)	≤ 0.008 µg/mL	0.5 µg/mL (≈ 0.82 µM)	0.016 µg/mL (≈ 0.0262 µM)	MIC [25]: 0.25 µg/mL (≈ 0.41 µM); MIC (ATCC 12228): 1 µg/mL (≈ 1.64 µM); MIC [22]: 0.016 µg/mL (≈ 0.0262 µM); MIC [23]: 0.016 µg/mL (≈ 0.0262 µM); LD50 at 336 h [24]: > 3000 mg/kg
